Series [1] relates to RAW264.7 cells. In words: Cell viability (MTT) in the presence of LPS. The following applies: for Cell Viability (% of Control): RAW264.7, 100 ng/mL LPS, 24 h, MTT, mean ± S.D. The series is classed as cell-based, murine. The procedure:
(§1) A murine macrophage cell line RAW264.7 (BCRC No. 60001) was purchased from the Bioresources Collection and Research Center (BCRC, Hsinchu, Taiwan) of the Food Industry Research and Development Institute (Hsinchu, Taiwan). Cells were cultured in plastic dishes containing Dulbecco’s Modified Eagle Medium (DMEM, Sigma) supplemented with 10% fetal bovine serum (FBS, Sigma) in a CO2 incubator (5% CO2 in air) at 37 °C and subcultured every 3 days at a dilution of 1:5 using 0.05% trypsin-0.02% EDTA in Ca^2+-, Mg^2+-free phosphate-buffered saline (DPBS).
Cells (2 × 10^5) were cultured in 96-well plate containing DMEM supplemented with 10% FBS for 1 day to become nearly confluent. Then cells were cultured with compounds 1–5 in the presence of 100 ng/mL LPS (lipopolysaccharide) for 24 h. After that, the cells were washed twice with DPBS and incubated with 100 μL of 0.5 mg/mL MTT for 2 h at 37 °C testing for cell viability. The medium was then discarded and 100 μL dimethyl sulfoxide (DMSO) was added. After 30-min incubation, absorbance at 570 nm was read using a microplate reader (Molecular Devices, Sunnyvale, CA, USA).

Series [2] deals with LPS-induced NO production in macrophages (RAW264.7 cells). In words: Measurement of nitric oxide/nitrite (Griess reaction) in LPS-stimulated macrophages. Format: cell-based, murine. Conditions: for NO Inhibition (% of Control) / No Level: LPS 100 ng/mL, 24 h, mean ± S.D.; for No Level: nitrite in medium, LPS alone 30.3 ± 2.2, in µM. On the procedure:
as §1
NO production was indirectly assessed by measuring the nitrite levels in the cultured media and serum determined by a colorimetric method based on the Griess reaction. The cells were incubated with different concentration of samples in the presence of LPS (100 ng/mL) at 37 °C for 24 h. Then, cells were dispensed into 96-well plates, and 100 μL of each supernatant was mixed with the same volume of Griess reagent (1% sulfanilamide, 0.1% naphthylethylenediamine dihydrochloride and 5% phosphoric acid) and incubated at room temperature for 10 min, the absorbance was measured at 540 nm with a Micro-Reader (Molecular Devices). By using sodium nitrite to generate a standard curve, the concentration of nitrite was measured form absorbance at 540 nm.
IC50 values were estimated using a non-linear regression algorithm (Sigma Plot 12.0; SPSS Inc. Chicago, IL, USA). Statistical evaluation was carried out by one-way ANOVA followed by Scheffe’s multiple range tests.
In general terms: Nitrite, measured by Griess reagent, commonly stands in for NO production.

Values after ≈ are worked out from the molar mass of the structure shown. “Also recorded” adds a separate entry of the source.

As to `COc1cc([C@H]2Oc3cc(/C=C\CO)ccc3O[C@@H]2C)ccc1O` [Compound 1, isoamericanol B], the “Cell Viability (% of Control)” value in series [1] (dose 2.5 μg/mL) was 100.6 ± 5.9 % of Control; in series [1] (dose 5 μg/mL), 97.6 ± 4.3 % of Control; in series [1] (dose 10 μg/mL) it was 90.7 ± 3.3 % of Control; in series [1] (dose 20 μg/mL) it was 88.8 ± 2.6 % of Control. Besides, in series [1] (tested concentrations 2.5 to 20 μg/mL), the “Change of cell viability (in words)” value is reported as “did not significantly change cell viability; also recorded: did not change significantly cell viability”. Also, the IC50 in series [2] (Mus musculus, RAW264.7, 24 h, LPS-stimulated RAW264.7 cells, non-linear regression, read-out: IC50 for inhibition of nitrite production) was around 10.3 µg/mL (≈ 31.4 µM). The “NO Inhibition (% of Control)” value in series [2] (dose 2.5 μg/mL) is 42.0 ± 1.6 % of Control; in series [2] (dose 5 μg/mL), 42.3 ± 2.6 % of Control; in series [2] (dose 10 μg/mL), 49.7 ± 1.4 % of Control; in series [2] (dose 20 μg/mL), 60.4 ± 1.3 % of Control. Besides, the “No Level” value in series [2] (dose 2.5 μg/mL) is 17.6 ± 0.5; in series [2] (dose 5 μg/mL), 17.5 ± 08; in series [2] (dose 10 μg/mL), 15.2 ± 0.4; in series [2] (dose 20 μg/mL), 12.0 ± 0.4.

As usually defined, the IC50 is the concentration needed to halve the response being measured.

The record behind these values is paper PMC6270453, “One Lignanoid Compound and Four Triterpenoid Compounds with Anti-Inflammatory Activity from the Leaves of Elaeagnus oldhamii Maxim” (Molecules, 2013).
